Measured values from the NIST ThermoML archive (doi:10.1021/je900598y).

How the values were obtained:
[1] = 298.15 K; 101.33 kPa; Liquid
[2] = excess molar enthalpy (molar enthalpy of mixing); xn = mol fraction of the nth substance listed; details: 298.15 K, Liquid, Calvet calorimetry

CCCCCCCCCCCC [dodecane]
Details | mass density [kg/m3]
[1] | 745.28

CCCCCCCCCCCCCCCC [hexadecane]
Details | mass density [kg/m3]
[1] | 770.31

CCCCC(=O)OC(=O)CCCC [pentanoic anhydride]
Details | mass density [kg/m3]
[1] | 939.15

CCCCC(=O)OC(=O)CCCC [pentanoic anhydride] + CCCCCCCCCCCC
[2]
Details | excess molar enthalpy [kJ/mol]
x1 = 0.0248 | 0.196
x1 = 0.0484 | 0.362
x1 = 0.0709 | 0.495
x1 = 0.0923 | 0.611
x1 = 0.1128 | 0.709
x1 = 0.1324 | 0.791
x1 = 0.1511 | 0.866
x1 = 0.1691 | 0.927
x1 = 0.1914 | 0.998
x1 = 0.2126 | 1.06
x1 = 0.2327 | 1.11
x1 = 0.2518 | 1.15
x1 = 0.2699 | 1.19
x1 = 0.2827 | 1.22
x1 = 0.3038 | 1.25
x1 = 0.3195 | 1.27
x1 = 0.3411 | 1.32
x1 = 0.3488 | 1.33
x1 = 0.3569 | 1.33
x1 = 0.3654 | 1.34
x1 = 0.3743 | 1.35
x1 = 0.3837 | 1.36
x1 = 0.3935 | 1.37
x1 = 0.4025 | 1.37
x1 = 0.4118 | 1.38
x1 = 0.4217 | 1.38
x1 = 0.432 | 1.39
x1 = 0.4428 | 1.39
x1 = 0.4542 | 1.39
x1 = 0.4644 | 1.39
x1 = 0.475 | 1.39
x1 = 0.4861 | 1.39
x1 = 0.4978 | 1.39
x1 = 0.51 | 1.38
x1 = 0.5229 | 1.38
x1 = 0.5342 | 1.37
x1 = 0.5461 | 1.36
x1 = 0.5585 | 1.35
x1 = 0.5715 | 1.34
x1 = 0.5851 | 1.33
x1 = 0.5993 | 1.31
x1 = 0.6122 | 1.29
x1 = 0.6257 | 1.27
x1 = 0.6398 | 1.25
x1 = 0.6545 | 1.23
x1 = 0.6699 | 1.2
x1 = 0.6861 | 1.17
x1 = 0.7003 | 1.14
x1 = 0.7151 | 1.11
x1 = 0.7305 | 1.07
x1 = 0.7467 | 1.03
x1 = 0.7635 | 0.982
x1 = 0.7811 | 0.931
x1 = 0.7967 | 0.884
x1 = 0.8129 | 0.831
x1 = 0.8298 | 0.774
x1 = 0.8474 | 0.709
x1 = 0.8657 | 0.64
x1 = 0.8849 | 0.563
x1 = 0.9022 | 0.491
x1 = 0.9202 | 0.408
x1 = 0.9389 | 0.321
x1 = 0.9584 | 0.221
x1 = 0.9788 | 0.117
